Results taken from US20210346419A1, “COMPOSITIONS AND METHODS FOR DIAGNOSIS AND TREATMENT OF CONDITIONS RELATED TO THE QUALITY OF AGING AND LONGEVITY” (EPITRACKER, INC., priority 2019, published 2021).

Experiments:
BT human cell system = experiment: BioMAP Diversity PLUS primary human cell phenotypic profiling, BT system; assay type: cell-based; details: 6.7 and/or 20 μM, 24 to 72 hours
Description: (§1) It was hypothesized that, given the compounds' associations with lower risks of comorbidities of aging in long-lived dolphins, the compounds of the embodiments would have relevant activities in human cell systems mimicking conditions related to the quality of aging and longevity. To test this hypothesis, 12 primary human cell systems from the BioMAP Diversity PLUS® panel (Eurofins/DiscoverX, Fremont, Calif.) mimicking inflammation and fibrosis relevant to chronic inflammation, liver disease, respiratory disease, skin disease, wound healing, scarring, allergies, asthma, autoimmune disease, cancer, and cardiovascular disease, were exposed to pure, synthetic forms of the selected compounds at one or two concentrations (6.7 and/or 20 μM). Quantitative measurements of 148 biomarker activities across this broad panel, along with comparative analysis of biological activities from known bioactive agents, were used to predict and compare the efficacy and function of the targeted compounds across these systems compared to non-treated control systems. Activated BioMAP systems were incubated with the targeted compounds for 24 to 72 hours. Biomarker activities were considered significant when biomarker values were outside of the 95th percentile significance envelope and had at least one concentration with an effect size >20% (log 10 ratio) >0.1. FIG. 2 describes the different cell systems.
(§2) The summary is of relevant diseases and tissues treated with selected compounds at 6.7 to 20 μM, based on primary human cell phenotypic profiling.

MyoF human cell system = experiment: BioMAP Diversity PLUS primary human cell phenotypic profiling, MyoF system; assay type: cell-based; details: 6.7 and/or 20 μM, 24 to 72 hours
Description: as §1, §2

[1] = tested on: HDF3CGF human cell system; experiment: BioMAP Diversity PLUS primary human cell phenotypic profiling, HDF3CGF system; assay type: cell-based; details: 6.7 and/or 20 μM, 24 to 72 hours
Description: as §1, §2

4H human cell system = experiment: BioMAP Diversity PLUS primary human cell phenotypic profiling, 4H system; assay type: cell-based; details: 6.7 and/or 20 μM, 24 to 72 hours
Description: as §1, §2

SAg human cell system = experiment: BioMAP Diversity PLUS primary human cell phenotypic profiling, SAg system; assay type: cell-based; details: 6.7 and/or 20 μM, 24 to 72 hours; for Proliferation, Log10 ratio of treated vs. non-treated systems: T cell proliferation
Description: as §1, §2

BE3C human cell system = experiment: BioMAP Diversity PLUS primary human cell phenotypic profiling, BE3C system; assay type: cell-based; details: 6.7 and/or 20 μM, 24 to 72 hours
Description: as §1, §2

3C human cell system = experiment: BioMAP Diversity PLUS primary human cell phenotypic profiling, 3C system; assay type: cell-based; details: 6.7 and/or 20 μM, 24 to 72 hours
Description: as §1, with “cell systems. […]” for “cell systems.”

KF3CT human cell system = experiment: BioMAP Diversity PLUS primary human cell phenotypic profiling, KF3CT system; assay type: cell-based; details: 6.7 and/or 20 μM, 24 to 72 hours
Description: as §1, §2

LPS human cell system = experiment: BioMAP Diversity PLUS primary human cell phenotypic profiling, LPS system; assay type: cell-based; details: 6.7 and/or 20 μM, 24 to 72 hours
Description: as §1, §2

CASM3C human cell system = experiment: BioMAP Diversity PLUS primary human cell phenotypic profiling, CASM3C system; assay type: cell-based; details: coronary artery smooth muscle cell proliferation, 6.7 and/or 20 μM, 24 to 72 hours
Description: as §1, with “cell systems. […]” for “cell systems.”

/Mphg human cell system = experiment: BioMAP Diversity PLUS primary human cell phenotypic profiling, /Mphg system; assay type: cell-based; details: 6.7 and/or 20 μM, 24 to 72 hours
Description: as §1, §2

BF4T human cell system = experiment: BioMAP Diversity PLUS primary human cell phenotypic profiling, BF4T system; assay type: cell-based; details: 6.7 and/or 20 μM, 24 to 72 hours
Description: as §1, with “cell systems. […]” for “cell systems.”

[2] = room temperature; cited from earlier work

N=C(N)NCCCC(=O)O [4-guanidinobutanoate]
IL-17A (sIL-17A), Log10 ratio of treated vs. non-treated systems (BT human cell system): −0.17
TNF-α (sTNF-α), Log10 ratio of treated vs. non-treated systems (BT human cell system): −0.10
sIgG, Log10 ratio of treated vs. non-treated systems (BT human cell system): −0.49
Collagen IV, Log10 ratio of treated vs. non-treated systems (MyoF human cell system): 0.13
CXCL10, Log10 ratio of treated vs. non-treated systems [1]: −0.11
CXCL11, Log10 ratio of treated vs. non-treated systems [1]: −0.19
Collagen III, Log10 ratio of treated vs. non-treated systems [1]: −0.23
Proliferation, Log10 ratio of treated vs. non-treated systems [1]: −1.09
TIMP-1, Log10 ratio of treated vs. non-treated systems [1]: −0.14
VCAM-1 (VCAM1), Log10 ratio of treated vs. non-treated systems [1]: −0.19
MCP-1, Log10 ratio of treated vs. non-treated systems (4H human cell system): −0.12
CD38, Log10 ratio of treated vs. non-treated systems (SAg human cell system): −0.10
Proliferation, Log10 ratio of treated vs. non-treated systems (SAg human cell system): −0.13

CC(=O)N[C@H](C(=O)O)[C@@H](C)O [N-acetylthreonine]
sIgG, Log10 ratio of treated vs. non-treated systems (BT human cell system): −0.41
VEGFR2, Log10 ratio of treated vs. non-treated systems (4H human cell system): −0.16

Nc1ncnc2c1ncn2[C@@H]1O[C@H](CSCC[C@H](N)C(=O)O)[C@@H](O)[C@H]1O [S-adenosylhomocysteine (SAH), S-adenosylhomocysteine]
CXCL8, Log10 ratio of treated vs. non-treated systems (BE3C human cell system): −0.13
CXCL11, Log10 ratio of treated vs. non-treated systems (BE3C human cell system): −0.13
HLA-DR, Log10 ratio of treated vs. non-treated systems (BE3C human cell system): −0.13
MMP-9, Log10 ratio of treated vs. non-treated systems (BE3C human cell system): −0.24
sIgG, Log10 ratio of treated vs. non-treated systems (BT human cell system): −0.29
Alpha-SM actin, Log10 ratio of treated vs. non-treated systems (MyoF human cell system): −0.18
Collagen I, Log10 ratio of treated vs. non-treated systems (MyoF human cell system): −0.15
Collagen III, Log10 ratio of treated vs. non-treated systems (MyoF human cell system): −0.27
Collagen IV, Log10 ratio of treated vs. non-treated systems (MyoF human cell system): 0.31
VCAM-1, Log10 ratio of treated vs. non-treated systems (MyoF human cell system): −0.12
CXCL10, Log10 ratio of treated vs. non-treated systems [1]: −0.19
CXCL11, Log10 ratio of treated vs. non-treated systems [1]: −0.25
Collagen III, Log10 ratio of treated vs. non-treated systems [1]: −0.21
M-CSF, Log10 ratio of treated vs. non-treated systems [1]: −0.19
MCP-1, Log10 ratio of treated vs. non-treated systems [1]: −0.14
PAI-1, Log10 ratio of treated vs. non-treated systems [1]: −0.23
Proliferation, Log10 ratio of treated vs. non-treated systems [1]: −1.10
TIMP-1, Log10 ratio of treated vs. non-treated systems [1]: −0.14
VCAM-1 (VCAM1), Log10 ratio of treated vs. non-treated systems [1]: −0.17
Proliferation, Log10 ratio of treated vs. non-treated systems (SAg human cell system): −0.21
Proliferation, Log10 ratio of treated vs. non-treated systems (3C human cell system; endothelial cell proliferation): −0.27
MMP-9, Log10 ratio of treated vs. non-treated systems (KF3CT human cell system): −0.10
PAI-1, Log10 ratio of treated vs. non-treated systems (KF3CT human cell system): −0.28

C[C@H](CCC(=O)O)[C@H]1CC[C@H]2[C@@H]3[C@H](O)C[C@@H]4C[C@H](O)CC[C@]4(C)[C@H]3CC[C@]12C [chenodeoxycholate]
CXCL8, Log10 ratio of treated vs. non-treated systems (SAg human cell system): −0.10

C[C@H](CCC(=O)O)[C@H]1CC[C@H]2[C@@H]3[C@H](O)C[C@@H]4C[C@H](O)CC[C@]4(C)[C@H]3C[C@H](O)[C@]12C [cholate]
MMP-1, Log10 ratio of treated vs. non-treated systems (BE3C human cell system): −0.10

N[C@@H](CCC(=O)N[C@@H](Cc1c[nH]cn1)C(=O)O)C(=O)O [gamma-glutamylhistidine]
CD40, Log10 ratio of treated vs. non-treated systems (LPS human cell system): −0.11
E-selectin, Log10 ratio of treated vs. non-treated systems (LPS human cell system): −0.11
MMP-1, Log10 ratio of treated vs. non-treated systems (BE3C human cell system): −0.10
TNF-α (sTNF-α), Log10 ratio of treated vs. non-treated systems (BT human cell system): −0.18
Proliferation, Log10 ratio of treated vs. non-treated systems (CASM3C human cell system): 0.11
Tissue factor, Log10 ratio of treated vs. non-treated systems (3C human cell system): −0.12
CXCL8, Log10 ratio of treated vs. non-treated systems (/Mphg human cell system): −0.15

O=C(O)CNC(=O)c1ccccc1 [hippurate]
CD40, Log10 ratio of treated vs. non-treated systems (LPS human cell system): −0.11
MMP-1, Log10 ratio of treated vs. non-treated systems (BE3C human cell system): −0.11
Proliferation, Log10 ratio of treated vs. non-treated systems (CASM3C human cell system): −0.10
P-selectin, Log10 ratio of treated vs. non-treated systems (4H human cell system): −0.10
CXCL8, Log10 ratio of treated vs. non-treated systems (/Mphg human cell system): −0.12

O[C@H]1[C@H](O)[C@@H](O)[C@H](O)[C@@H](O)[C@H]1O [myo-inositol]
CXCL8, Log10 ratio of treated vs. non-treated systems (BE3C human cell system): −0.26
CXCL10, Log10 ratio of treated vs. non-treated systems (BE3C human cell system): −0.58
CXCL11, Log10 ratio of treated vs. non-treated systems (BE3C human cell system): −0.28
EGFR, Log10 ratio of treated vs. non-treated systems (BE3C human cell system): −0.11
HLA-DR, Log10 ratio of treated vs. non-treated systems (BE3C human cell system): −0.10
ICAM-1, Log10 ratio of treated vs. non-treated systems (BE3C human cell system): −0.11
MMP-9, Log10 ratio of treated vs. non-treated systems (BE3C human cell system): −0.25
PAI-1, Log10 ratio of treated vs. non-treated systems (BE3C human cell system): −0.18
IL-17A (sIL-17A), Log10 ratio of treated vs. non-treated systems (BT human cell system): −0.12
TNF-α (sTNF-α), Log10 ratio of treated vs. non-treated systems (BT human cell system): −0.21
sIL-2, Log10 ratio of treated vs. non-treated systems (BT human cell system): −0.16
sIL-17F, Log10 ratio of treated vs. non-treated systems (BT human cell system): −0.15
sIgG, Log10 ratio of treated vs. non-treated systems (BT human cell system): −0.62
Collagen III, Log10 ratio of treated vs. non-treated systems (MyoF human cell system): −0.11
Collagen IV, Log10 ratio of treated vs. non-treated systems (MyoF human cell system): 0.24
VCAM-1, Log10 ratio of treated vs. non-treated systems (MyoF human cell system): −0.11
MCP-1, Log10 ratio of treated vs. non-treated systems (4H human cell system): −0.13
Proliferation, Log10 ratio of treated vs. non-treated systems (SAg human cell system): −0.20
Eotaxin-3, Log10 ratio of treated vs. non-treated systems (BF4T human cell system): −0.19
MCP-1, Log10 ratio of treated vs. non-treated systems (BF4T human cell system): −0.21
CXCL10, Log10 ratio of treated vs. non-treated systems (KF3CT human cell system): −0.26
IL-1α, Log10 ratio of treated vs. non-treated systems (KF3CT human cell system): −0.11
MMP-9, Log10 ratio of treated vs. non-treated systems (KF3CT human cell system): −0.18
PAI-1, Log10 ratio of treated vs. non-treated systems (KF3CT human cell system): −0.27
IL-1α, Log10 ratio of treated vs. non-treated systems (/Mphg human cell system): −0.10

COc1cc(C(O)C(=O)O)ccc1O (stereo not shown) [vanillylmandelate (VMA), vanillylmandelate]
CXCL8, Log10 ratio of treated vs. non-treated systems (/Mphg human cell system): −0.18

O=c1[nH]c(=O)c2ncn([C@@H]3O[C@H](CO)[C@@H](O)[C@H]3O)c2[nH]1 [xanthosine]
CD40, Log10 ratio of treated vs. non-treated systems (LPS human cell system): −0.12
Tissue factor, Log10 ratio of treated vs. non-treated systems (LPS human cell system): −0.13
Physical state and stability [2]: solid that is stable at room temperature
CXCL8, Log10 ratio of treated vs. non-treated systems (/Mphg human cell system): −0.13
